Reference: US20080233221A1, “Prostate cancer and benign prostatic hyperplasia treatments” (State of Oregon, priority 2007, published 2008)

What was measured:
Type in all cases: cell-based, human
PC-3 cells [1] = test: Multicaspase assay (SR-VAD-FMK/7AAD flow cytometry) in PC-3 cells; settings: 48 h
Procedure: (§1) FIG. 3 sets forth data relating to xanthohumol and xanthoaurenol induction of caspase activity in BPH-1 and PC-3 cells. Cells were treated with XN or XAL for 48 h. Induction of apoptosis was measured using a multi-caspase assay. SR-VAD-FMK covalently binds caspases and positively stained cells were assessed by flow cytometry as a measure of caspase activation. 7-Amino-actinomycin D (7AAD), a nucleotide stain that only stains cells when membrane integrity is compromised, was used to differentiate between early and late apoptotic cells. SR-VAD-FMK(+) 7AAD(−) cells are undergoing early-mid apoptosis, […] late stage apoptotic cells. Values are mean±SD, n=3. *P<0.05, **P<0.01.
At various times after treatment with XN or XAL, adherent and floating cells were collected for analysis. Apoptosis was assessed using a flow cytometry based nexin and multicaspase assay kits (Guava Technologies, Burlingame, Calif.). The nexin assay is based on measurement of externalization of phosphatidyl serine, a common characteristic of cells undergoing apoptosis. The multicaspase assay is based on measurement of caspase enzymes activated during apoptosis. […] Cell populations were quantified using Guava personal cytometer (Guava Technologies, Burlingame, Calif.).

BPH-1 cells [2] = test: Annexin V (nexin) apoptosis assay in BPH-1 cells; settings: 20 μM
Procedure: FIG. 4 sets forth data relating to xanthohumol and xanthoaurenol induction of apoptosis in BPH-1 and PC-3 cells. Cells were treated with XN and XAL and apoptosis was detected using the Annexin V assay. Externalization of phosphatidyl serine, an early marker of apoptosis was detected by flow cytometry after staining with Annexin V-PE and 7AAD. Annexin V(+) 7AAD(−) cells are undergoing early apoptosis, and Annexin V(+) 7AAD(+) are undergoing late apoptosis. Values are mean±SD, n=3. *P<0.05, **P<0.01.
(§2) At various times after treatment with XN or XAL, adherent and floating cells were collected for analysis. Apoptosis was assessed using a flow cytometry based nexin and multicaspase assay kits (Guava Technologies, Burlingame, Calif.). The nexin assay is based on measurement of externalization of phosphatidyl serine, a common characteristic of cells undergoing apoptosis. The multicaspase assay is based on measurement of caspase enzymes activated during apoptosis. Cells were trypsinized, washed in D-PBS and stained with Annexin V, sulforhodamine-valyl-alanyl-aspartyl-fluoromethyl-ketone (SR-VAD-FMK), and 7-amino-actinomycin D (7AAD) according to the manufactures instructions. Cell populations were quantified using Guava personal cytometer (Guava Technologies, Burlingame, Calif.).

BPH-1 cells [3] = test: Cell cycle analysis (propidium iodide flow cytometry) in BPH-1 cells; settings: for cell cycle modification: 10 and 20 μM
Procedure: At various time points after treatment with XN and XAL, adherent and floating cells were collected and fixed in 70% ethanol at one million cells per aliqout. Samples were centrifuged at 500×g, washed with PBS, and resuspended in cellular DNA staining solution containing […] propidium iodide (Sigma, St Louis, Mo.) and 100 μg/mL RNase (Sigma, St Louis, Mo.) in PBS. After 30-min incubation at room temperature, cell populations were quantified using Guava personal cytometer. Data analysis was performed using Multi Cycle software (Phoenix Flow Systems, San Diego, Calif.).
In Table 1, Cells were treated with 0, 10 or 20 μM XN or XAL, as indicated, and harvested after 48 h. Attached and floating cells were fixed in 70% ethanol and stained with propidium iodide, and cell cycle kinetics were examined using the Guava PCA, followed by data analysis with Multi-Cycle software.

[4] = tested on: pro-apoptotic proteins Bax and p53 and anti-apoptotic protein Bcl-2; test: Western blot of Bax, p53 and Bcl-2 in whole cell lysates of BPH-1 cells; settings: for expression of pro-apoptotic protein Bax / expression of pro-apoptotic protein p53: 10 and 20 μM; for expression of pro-apoptotic protein Bax / expression of pro-apoptotic protein p53 / expression of anti-apoptotic protein Bcl-2: 48 h
Procedure: FIG. 6 sets forth data relating to xanthohumol and xanthoaurenol induce expression of proapoptotic proteins p53 and bax, with down-regulation of antiapoptotic proteins bcl-2 in BPH-1 cells. Western blot of pro-apoptotic proteins Bax and p53 and anti-apoptotic protein Bcl-2 were performed from whole cell lysates of BPH-1 cells treated with XN and XAL for 48 h. Blots are representative of three individual experiments.
Cells were lysed in RIPA buffer and whole cell lysate protein concentrations were determined using a detergent-compatible protein assay (BioRad, CA). Proteins (15-35 μg) were separated by SDS-PAGE under standard conditions and were transferred to a nitrocellulose membrane (Biorad, CA) at 300 mA for 2 h. Antibody dilutions were as follows: Bax (BD Pharmingen, 1:500 dilution), Bcl-2 (Santa Cruz Biotechnology, 1:1000 dilution), p53 (Santa Cruz Biotechnology, 1:1000 dilution), NFκB p65 (Santa Cruz Biotechnology, 1:1000 dilution), actin (Sigma, 1:5000 dilution). Actin was used to confirm equal protein loading between samples. Protein was detected using chemiluminescence reagents (Pierce, Rockford, Ill.) with image analysis on Alpha Innotech photodocumentation system (Alpha Innotech, Hayward, Calif.).

BPH-1 cells [5] = test: Cell viability by MTT assay in BPH-1 cells; settings: BPH-1 cells, 48 h; for cell viability (number of viable cells): MTT
Procedure: (§3) Human benign prostate hyperplasia epithelial cells (BPH-1) were obtained from Dr. Simon W. Hayward (Vanderbilt University, Nashville, Tenn.) and malignant androgen-independent prostate cancer epithelial cells (PC-3) were obtained from American Type Tissue Collection (Manassas, Va.). Cells were grown and maintained in RPMI 1640 with glutamine (Mediatech, Inc., Herndon, Va.) supplemented with 5% (BPH-1) or 10% (PC-3) fetal bovine serum (Hyclone, Logan, Utah) and 1% penicillin-streptomycin (Mediatech, Inc., Herndon, Va.). All cell types were maintained in 5% CO2 at 37° C.
(§4) XN was isolated from hop cones as described previously (Stevens et al., J. Chromatogr. A 832 (1999) 97-107). Its oxidation product, xanthoaurenol (XAL), was prepared from xanthohumol (XN) by treatment with peroxynitrite. The structure of XAL was determined by mass spectrometry, NMR spectroscopy and X-ray diffraction analysis. Prenylflavonoids were dissolved in 100% methanol and were added to the culture medium at a final concentration of 2.5-200 μmol/L, depending on desired treatment. All treatments were done at approximately 50-70% confluency. As a control, methanol was added to culture medium equivalent to hop treatment.
(§5) Cells were seeded into 24-well plates (50,000 cells per well). After 24 h, cells were treated with either XN or XAL as described above. Cell viability was evaluated by MTT assay as described by Mossmann et al., J. Immunol. Methods 65 (1983) 55-63. Production of formazan product was detected in a Molecular Devices SpectraMax (Molecular Devices, Sunnyvale, Calif.) at 580 nm.

NFκB [6] = test: NFκB activation, transcription factor binding ELISA, nuclear extracts of BPH-1 cells; settings: 20 μM, 48 h
Procedure: (§6) FIG. 5 sets forth data relating to xanthohumol and xanthoaurenol inhibit NFκB activation in nuclear extracts of BPH-1 cells. Cells were treated with XN or XAL for 48 h. (A) Cells were harvested by scraping and then subjected to nuclear extraction. NFκB activation was determined using transcription factor binding ELISA as described in Section 2. Equal protein loading was confirmed using β-actin. Results are representative of two or more separate experiments. (B) BPH-1 cells were treated with XN or XAL for 48 h and detection of p65 nuclear protein was performed with immunoblotting methods. (C) No inhibition of NFκB activation in treated PC3 cells. Results are mean±SD, n=3. **P<0.01.
(§7) NFκB Activity was measured using Trans AM NFκB p65/p50 Transcription Factor Assay Kit (Active Motif, CA). Cytosolic and nuclear extracts were prepared from cells by using Nuclear Extraction Kit (Active Motif, Carlsbad, Calif.). Nuclear extract samples (10 μg) were added to a 96 well plate with immobilized oligonucleotide containing the NFκB consensus site (5′-GGGACTTTCC-3′). Sample wells were incubated with primary antibody specific for NFκB, followed by incubation with an HRP-conjugated secondary antibody, followed by quantification at OD 580 using a plate reader (Molecular Devices, Sunnyvale, Calif.).

BPH-1 cells [7] = test: Multicaspase assay (SR-VAD-FMK/7AAD flow cytometry) in BPH-1 cells; settings: 48 h
Procedure: as §1, §2

NFκB p65 = test: Immunoblot of p65 nuclear protein in BPH-1 cells; settings: 48 h
Procedure: as §6
Cells were lysed in RIPA buffer and whole cell lysate protein concentrations were determined using a detergent-compatible protein assay (BioRad, CA). Proteins (15-35 μg) were separated by SDS-PAGE under standard conditions and were transferred to a nitrocellulose membrane (Biorad, CA) at 300 mA for 2 h. […] Protein was detected using chemiluminescence reagents (Pierce, Rockford, Ill.) with image analysis on Alpha Innotech photodocumentation system (Alpha Innotech, Hayward, Calif.).

PC-3 cells [8] = test: Cell viability by MTT assay in PC-3 cells; settings: PC3 cells, 48 h; for cell viability (number of viable cells): MTT
Procedure: as §3, §4, §5

NFκB [9] = test: NFκB activation, transcription factor binding ELISA, PC3 cells
Procedure: as §6, §7

[10] = Cell viability by MTT assay in BPH-1 cells; settings: human
Procedure: as §3, §4, §5

[11] = Cell viability by MTT assay in PC-3 cells; settings: human
Procedure: as §3, §4, §5

Structure (SMILES): COc1cc(O)c(CC=C(C)C)c2c1C(=O)/C(=C/Oc1ccc(O)cc1)O2 [XAL, xanthoaurenol]
- SR-VAD-FMK stained cells (caspase activation) (PC-3 cells [1]): increase only in late apoptotic SR-VAD-FMK(+) 7AAD(+) cells
- Annexin V(+) 7AAD(+) cells (late apoptosis) (BPH-1 cells [2]): increase
- Annexin V(+) 7AAD(−) cells (early apoptosis) (BPH-1 cells [2]): increase
- G1, percentage of cells in phase (BPH-1 cells [3]; 20 μM, 48 h, mean ± SE, n=3): 45.730 ± 1.376%
- cell cycle modification (BPH-1 cells [3]): clear accumulation in the S phase
- expression of pro-apoptotic protein Bax [4]: Increase
- expression of pro-apoptotic protein p53 [4]: Increase
- expression of anti-apoptotic protein Bcl-2 [4]: decreased expression
- cell viability (number of viable cells) (BPH-1 cells [5]): dose-dependent decrease in number of viable
- viability decreased to (BPH-1 cells [5]; concentration of XAL not given): 81%
- decrease in NFκB activity (NFκB [6]): 42%
- SR-VAD-FMK(+) 7AAD(+) cells (late apoptosis) (BPH-1 cells [7]): increase
- SR-VAD-FMK(+) 7AAD(−) cells (caspase activation, early to mid stage apoptosis) (BPH-1 cells [7]): increase
- NFκB p65 protein levels in the nuclear fraction (NFκB p65): increased
- cell viability (number of viable cells) (PC-3 cells [8]): dose-dependent decrease in number of viable
- viability decreased to (PC-3 cells [8]; concentration of XAL not given): 55%
- NFκB activation (NFκB [9]): No inhibition

Structure (SMILES): COc1cc(O)c(CC=C(C)C)c(O)c1C(=O)/C=C/c1ccc(O)cc1 [XN, xanthohumol]
- SR-VAD-FMK stained cells (caspase activation) (PC-3 cells [1]): increase only in late apoptotic SR-VAD-FMK(+) 7AAD(+) cells
- Annexin V(+) 7AAD(+) cells (late apoptosis) (BPH-1 cells [2]): increase
- Annexin V(+) 7AAD(−) cells (early apoptosis) (BPH-1 cells [2]): increase
- cell cycle modification (BPH-1 cells [3]): clear accumulation in the S phase
- increase in expression of Bax and p53 compared with XAL [4]: larger increase in expression of Bax and p53 than did treatment with XAL
- expression of pro-apoptotic protein Bax [4]: Increase
- expression of pro-apoptotic protein p53 [4]: Increase
- expression of anti-apoptotic protein Bcl-2 [4]: decreased expression
- cell viability (number of viable cells) (BPH-1 cells [5]): dose-dependent decrease in number of viable
- cytotoxicity at 48 h, 20 μM [10]: 80%
- decrease in NFκB activity (NFκB [6]): 42%
- SR-VAD-FMK(+) 7AAD(+) cells (late apoptosis) (BPH-1 cells [7]): increase
- SR-VAD-FMK(+) 7AAD(−) cells (caspase activation, early to mid stage apoptosis) (BPH-1 cells [7]): increase
- NFκB p65 protein levels in the nuclear fraction (NFκB p65): increased
- cell viability (number of viable cells) (PC-3 cells [8]): dose-dependent decrease in number of viable
- cytotoxicity at 48 h, 20 μM [11]: 43%
- NFκB activation (NFκB [9]): No inhibition

Structure (SMILES): O=C(O[C@@H]1Cc2c(O)cc(O)cc2O[C@@H]1c1cc(O)c(O)c(O)c1)c1cc(O)c(O)c(O)c1 [epigallocatechin gallate, reference compound]
- cell viability (number of viable cells) (BPH-1 cells [5]): did not significantly decrease cell viability
